Assay results from publication PMC7753040, “Discovery of a Potent RIPK3 Inhibitor for the Amelioration of Necroptosis-Associated Inflammatory Injury” (Frontiers in Cell and Developmental Biology, 2020).

Tested on: HeLa-MLKL (1–190) cells
Assay: MLKL polymerization-induced necroptosis in HeLa-MLKL (1-190) cells (AP20187)
Format: cell-based, human
Settings: doxycycline 1 μg/ml 24 h, 2 h pretreatment, AP20187 60 nM 24 h
Excerpt: Human colon cancer HT-29 and mouse fibrosarcoma L929 cells were from ATCC. Mouse embryonic fibroblasts (MEF), HT-29 cells stably expressing RIPK3-shRNA and shRNA resistant scramble Flag-tagged RIPK3 (W46), and NIH3T3 cell line stably expressing RIPK3 fused to mutant FK506-binding protein (NIH3T3-RIPK3) were kindly provided by Dr. Xiaodong Wang [National Institute of Biological Sciences (NIBS), Beijing]. HeLa-MLKL (1-190) cell line was a gift from Dr. Zhigao Wang (University of Texas Southwestern Medical Center at Dallas). These cells were cultured in Dulbecco’s modified Eagle’s medium (Hyclone) supplemeted with 10% fetal bovine serum (Invitrogen) and 2 mM L-glutamine (Invitrogen) in a humidified incubator at 37°C and 5% CO2. […]
Cells were seeded in 96-well plates and then treated as indicated. The cell viability was determined by assessment of ATP levels using the CellTiter-Glo Luminescent Cell Viability Assay kit following the manufacture’s instructions (Promega). Luminescence was calculated with SpectraMax i3x (Molecular Devices).
In vitro kinase activity assays using recombinant RIPK3 and RIPK1 were performed as described in the section “Materials and Methods.” Data represent mean value ± standard deviation. […] Cell viability was determined by measuring ATP levels. […] Cell viability was determined by measuring ATP levels. […]

## COc1nccnc1NS(=O)(=O)c1ccc(NC(=O)/C=C/c2ccc([N+](=O)[O-])s2)cc1 [necrosulfonamide, reference compound]
  polymerized MLKL-induced necroptosis: blocked
